The assay deals with T1, PDGF-receptor beta enzyme comprising the tyrosine kinase domain (Homo sapiens, UniProt P09619).
T1 construct: from amino acid 545 to 1106 of GenBank Access NO: AAA36427
Nature of the assay: Inhibition of PDGF-receptor kinase activity (cell-free, PLC1 peptide, 33P Flashplate). It counts as biochemical. To be noted: PDGF-R kinase activity; for inhibition at 10 µM: compound at 10 uM, read-out: Percent Inhibition @ 10 uM; for IC50: read-out: IC50. In a few lines: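 The IC50 is the inhibitor level halving kinase activity relative to inhibitor-free wells, measured as 33P captured on a streptavidin-bound biotin-PLC1 peptide. The reaction ran 60 min at 30 °C in pH 8 Tris buffer with 1 mM DTT, 5 μM ATP and the 545–1106 kinase-domain enzyme.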

The structures appear in SMILES notation.

T1 sequence (P09619 545-1106): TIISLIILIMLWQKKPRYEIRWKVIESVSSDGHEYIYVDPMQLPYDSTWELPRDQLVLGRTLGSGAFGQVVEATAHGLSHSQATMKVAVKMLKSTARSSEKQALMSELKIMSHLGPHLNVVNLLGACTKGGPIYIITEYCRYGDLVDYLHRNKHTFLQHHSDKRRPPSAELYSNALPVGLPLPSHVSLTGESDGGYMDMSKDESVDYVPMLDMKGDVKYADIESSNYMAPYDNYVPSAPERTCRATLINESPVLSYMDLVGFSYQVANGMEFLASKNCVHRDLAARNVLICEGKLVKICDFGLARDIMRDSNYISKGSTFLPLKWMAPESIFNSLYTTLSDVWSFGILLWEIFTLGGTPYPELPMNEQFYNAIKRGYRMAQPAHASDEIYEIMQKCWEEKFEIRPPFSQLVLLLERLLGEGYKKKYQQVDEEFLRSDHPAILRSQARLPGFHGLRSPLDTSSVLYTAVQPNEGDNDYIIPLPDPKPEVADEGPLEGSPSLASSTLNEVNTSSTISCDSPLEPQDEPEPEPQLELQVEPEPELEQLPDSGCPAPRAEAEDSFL

Take `COc1ccc(OC)c(Nc2[nH]nc3c2C(C)c2cc(OC)c(OC)cc2-3)c1` (stereo not shown) [Compound 258, (6,7-Dimethoxy-4-methyl-2,4-dihydro-indeno[1,2-c]pyrazol-3-yl)-(2,5-dimethoxy-phenyl)-amine]: the inhibition at 10 µM amounted to 39%.

Regarding `COc1cc2c(cc1OCC(O)CO)Cc1c-2n[nH]c1Nc1cccc(Cl)c1` (stereo not shown) [Compound 259], the inhibition at 10 µM turned out to be 93% and the IC50 was 2.04 nM. In the same order, the values of `CCOc1cc2c(cc1OCC)-c1n[nH]c(NCc3ccccc3)c1C2` [Compound 264, Benzyl-(6,7-diethoxy-2,4-dihydro-indeno[1,2-c]pyrazol-3-yl)-amine] are 86% and 85.2 nM. The corresponding values for `COc1cc2c(cc1OC)-c1n[nH]c(NCc3cc(Cl)cc(Cl)c3)c1C2` [Compound 271, (3,5-Dichloro-benzyl)-(6,7-dimethoxy-2,4-dihydro-indeno[1,2-c]pyrazol-3-yl)-amine] are 54.5% and 6990 nM. In the same order, the values of `COc1cc2c(cc1OC)-c1n[nH]c(NCc3cccc(C)c3)c1C2` [Compound 272, (6,7-Dimethoxy-2,4-dihydro-indeno[1,2-c]pyrazol-3-yl)-(3-methyl-benzyl)-amine] are 61% and 389 nM. In the case of `COc1cc2c(cc1OC)-c1n[nH]c(NCc3ccc(C)c(Cl)c3)c1C2` [Compound 273, (3-Chloro-4-methyl-benzyl)-(6,7-dimethoxy-2,4-dihydro-indeno[1,2-c]pyrazol-3-yl)-amine], the inhibition at 10 µM was determined as 77% and the IC50 was determined as 1580 nM. As to `COc1ccc(OC)c(CNc2[nH]nc3c2Cc2cc(OC)c(OC)cc2-3)c1` [Compound 274, (2,5-Dimethoxy-benzyl)-(6,7-dimethoxy-2,4-dihydro-indeno[1,2-c]pyrazol-3-yl)-amine], the inhibition at 10 µM was 57.5% and the IC50 came to 2610 nM. Consider `COc1cc2c(cc1OC)-c1n[nH]c(NCc3ccc(F)c(F)c3)c1C2` [Compound 275, (3,4-Difluoro-benzyl)-(6,7-dimethoxy-2,4-dihydro-indeno[1,2-c]pyrazol-3-yl)-amine], for which the inhibition at 10 µM is 80.5% and the half-maximal inhibitory concentration (IC50) stood at 501 nM. The corresponding values for `COc1cc2c(cc1OC)-c1n[nH]c(Nc3ccc(F)c([N+](=O)[O-])c3)c1C2` [Compound 276, (6,7-Dimethoxy-2,4-dihydro-indeno[1,2-c]pyrazol-3-yl)-(4-fluoro-3-nitro-phenyl)-amine] are 11% and 287 nM.

For `COc1ccc(Nc2[nH]nc3c2Cc2cc(OC)c(OC)cc2-3)cc1Cl` [Compound 277, (3-Chloro-4-methoxy-phenyl)-(6,7-dimethoxy-2,4-dihydro-indeno[1,2-c]pyrazol-3-yl)-amine], the inhibition at 10 µM came out at 88% and the IC50 came to 1360 nM.

In the case of `COc1cc2c(cc1OC)-c1n[nH]c(Nc3cccc(C(C)O)c3)c1C2` (stereo not shown) [Compound 278, 1-[3-(6,7-Dimethoxy-2,4-dihydro-indeno[1,2-c]pyrazol-3-ylamino)-phenyl]-ethanol], the inhibition at 10 µM is 97% and the 50% inhibitory concentration (IC50) came out at 29.5 nM. With `COc1cc2c(cc1OC)-c1n[nH]c(Nc3cc(C(C)(C)C)cc(C(C)(C)C)c3)c1C2` [Compound 279, (3,5-Di-tert-butyl-phenyl)-(6,7-dimethoxy-2,4-dihydro-indeno[1,2-c]pyrazol-3-yl)-amine], the inhibition at 10 µM was found to be 19.5% and the IC50 amounted to 203000 nM. The corresponding values for `COCCCOc1cc2c(cc1OCCCOC)-c1n[nH]c(Nc3cccc(Cl)c3)c1C2` [Compound 285, [6,7-Bis-(3-methoxy-propoxy)-2,4-dihydroindeno[1,2-c]pyrazol-3-yl]-(3-chloro-phenyl)-amine] are 18.5% and 2.78 nM.

With `COc1ccc(Nc2[nH]nc3c2Cc2cc(F)ccc2-3)cc1Cl` [Compound 288, (3-Chloro-4-methoxy-phenyl)-(6-fluoro-2,4-dihydro-indeno[1,2-c]pyrazol-3-yl)-amine], the inhibition at 10 µM is 88.5% and the IC50 turned out to be 219 nM. For `Fc1ccc2c(c1)Cc1c-2n[nH]c1Nc1ccc2[nH]ccc2c1` [Compound 290, (6-Fluoro-2,4-dihydro-indeno[1,2-c]pyrazol-3-yl)-(1H-indol-5-yl)-amine], the inhibition at 10 µM is 87.5% and the IC50 came to 61.4 nM. The corresponding values for `COc1cc2c(cc1OCc1ccccc1)Cc1c-2n[nH]c1Nc1cccc(F)c1` [Compound 291, (6-Benzyloxy-7-methoxy-2,4-dihydro-indeno[1,2-c]pyrazol-3-yl)-(3-fluoro-phenyl)-amine] are 95% and 205 nM. With `CCOc1cc2c(cc1OCC)-c1n[nH]c(NCc3ccccc3F)c1C2` [Compound 293, (6,7-Diethoxy-2,4-dihydro-indeno[1,2-c]pyrazol-3-yl)-(2-fluoro-benzyl)-amine], the inhibition at 10 µM was 96.5% and the IC50 amounted to 69.2 nM. For the compound `CCOc1cc2c(cc1OCC)-c1n[nH]c(NCc3cccc(F)c3)c1C2` [Compound 294, (6,7-Diethoxy-2,4-dihydro-indeno[1,2-c]pyrazol-3-yl)-(3-fluoro-benzyl)-amine], the inhibition at 10 µM amounted to 81% and the IC50 is 264 nM.

Regarding `CCOc1cc2c(cc1OCC)-c1n[nH]c(NCc3c(Cl)cccc3Cl)c1C2` [Compound 295, (2,6-Dichloro-benzyl)-(6,7-diethoxy-2,4-dihydro-indeno[1,2-c]pyrazol-3-yl)-amine], the inhibition at 10 µM amounted to 81.5% and the concentration for half-maximal inhibition (IC50) was 1.65 nM.

As to `CCOc1cc2c(cc1OCC)-c1n[nH]c(NCc3ccccc3OC)c1C2` [Compound 296, (6,7-Diethoxy-2,4-dihydro-indeno[1,2-c]pyrazol-3-yl)-(2-methoxy-benzyl)-amine], the inhibition at 10 µM is 72.5% and the 50% inhibitory concentration (IC50) came to 1820 nM. In the same order, the values of `COc1cc2c(cc1OC)-c1n[nH]c(Nc3cccc(C(=O)NCCO)c3)c1C2` [Compound 297, 3-(6,7-Dimethoxy-2,4-dihydro-indeno[1,2-c]pyrazol-3-ylamino)-N-(2-hydroxy-ethyl)-benzamide] are 90.5% and 275 nM.

Take `COc1cc2c(cc1OC)-c1n[nH]c(Nc3cccc(C(=O)NCCCN4CCCC4)c3)c1C2` [Compound 298, 3-(6,7-Dimethoxy-2,4-dihydro-indeno[1,2-c]pyrazol-3-ylamino)-N-(3-pyrrolidin-1-yl-propyl)-benzamide]: the inhibition at 10 µM amounted to 92% and the IC50 turned out to be 408 nM. With `COc1cc2c(cc1OC)C(c1ccccc1)c1c-2n[nH]c1Nc1ccccc1` (stereo not shown) [Compound 300, (6,7-Dimethoxy-4-phenyl-2,4-dihydro-indeno[1,2-c]pyrazol-3-yl)-phenyl-amine], the inhibition at 10 µM was determined as 40%. Regarding `CCOc1cc2c(cc1OCC)-c1n[nH]c(NCc3ccccc3OC(F)(F)F)c1C2` [Compound 301, (6,7-Diethoxy-2,4-dihydro-indeno[1,2-c]pyrazol-3-yl)-(2-trifluoromethoxy-benzyl)-amine], the inhibition at 10 µM was 72%. As for `COc1cc2c(cc1OC)C(c1ccccc1)c1c-2n[nH]c1Nc1cccc(F)c1` (stereo not shown) [Compound 302, (6,7-Dimethoxy-4-phenyl-2,4-dihydro-indeno[1,2-c]pyrazol-3-yl)-(3-fluoro-phenyl)-amine], the inhibition at 10 µM was 47%. As for `CC(C)(C)c1cc(Nc2[nH]nc3c2Cc2cc(F)ccc2-3)cc(C(C)(C)C)c1` [Compound 303, (3,5-Di-tert-butyl-phenyl)-(6-fluoro-2,4-dihydro-indeno[1,2-c]pyrazol-3-yl)-amine], the inhibition at 10 µM amounted to 50% and the IC50 came to 9340 nM. The corresponding values for `Fc1ccc2c(c1)Cc1c-2n[nH]c1NCc1cc(Cl)cc(Cl)c1` [Compound 304, (3,5-Dichloro-benzyl)-(6-fluoro-2,4-dihydro-indeno[1,2-c]pyrazol-3-yl)-amine] are 38% and 3460 nM.

Take `Cc1cccc(CNc2[nH]nc3c2Cc2cc(F)ccc2-3)c1` [Compound 305, (6-Fluoro-2,4-dihydro-indeno[1,2-c]pyrazol-3-yl)-(3-methyl-benzyl)-amine]: the inhibition at 10 µM was 87% and the IC50 is 458 nM. In the same order, the values of `Cc1ccc(CNc2[nH]nc3c2Cc2cc(F)ccc2-3)cc1Cl` [Compound 306, (3-Chloro-4-methyl-benzyl)-(6-fluoro-2,4-dihydroindeno[1,2-c]pyrazol-3-yl)-amine] are 47.5% and 8590 nM. For the compound `COc1ccc(OC)c(CNc2[nH]nc3c2Cc2cc(F)ccc2-3)c1` [Compound 307, (2,5-Dimethoxy-benzyl)-(6-fluoro-2,4-dihydro-indeno[1,2-c]pyrazol-3-yl)-amine], the inhibition at 10 µM came out at 59% and the IC50 was 3400 nM.

With `Fc1ccc2c(c1)Cc1c-2n[nH]c1NCc1ccc(F)c(F)c1` [Compound 308, (3,4-Difluoro-benzyl)-(6-fluoro-2,4-dihydro-indeno[1,2-c]pyrazol-3-yl)-amine], the inhibition at 10 µM turned out to be 14% and the half-inhibitory concentration (IC50) was 511 nM. With `Cc1ccc2c(c1)-c1n[nH]c(Nc3ccc4[nH]ccc4c3)c1C2` [Compound 311, (1H-Indol-5-yl)-(7-methyl-2,4-dihydro-indeno[1,2-c]pyrazol-3-yl)-amine], the inhibition at 10 µM came out at 68.5% and the IC50 amounted to 74.8 nM. In the same order, the values of `Cc1ccc2c(c1)-c1n[nH]c(Nc3cc(C(C)(C)C)cc(C(C)(C)C)c3)c1C2` [Compound 312, (3,5-Di-tert-butyl-phenyl)-(7-methyl-2,4-dihydro-indeno[1,2-c]pyrazol-3-yl)-amine] are 56.5% and 5670 nM. In the same order, the values of `Cc1ccc2c(c1)-c1n[nH]c(NCc3cc(Cl)cc(Cl)c3)c1C2` [Compound 313, (3,5-Dichloro-benzyl)-(7-methyl-2,4-dihydro-indeno[1,2-c]pyrazol-3-yl)-amine] are 62.5% and 3500 nM.

Source of the values: US7196110B2, “N-substituted tricyclic 3-aminopyrazoles as inhibitors for the treatment of cell proliferative disorders” (Janssen Phamaceutica N.V., priority 2002, dated 2007).
